# Biological target: T1, wild-type H-Ras protein (Homo sapiens, UniProt P01112)
# T1 construct: an endogenous wild-type K-Ras protein and wild-type H-Ras protein in HeLa cells; endogenous in cells; host or cells: HeLa cells
# Assay: Degradation of endogenous wild-type H-Ras protein in HeLa cells, Western blot analysis
# Type: cell-based
# Conditions: 48 hours after addition
# Experimental: HeLa cells were seeded in a 24-well plate at a cell density of 8×10^4 cells/well, and then cultured under conditions of 37° C. and 5 vol % CO2 for 16 hours.
# After 16 hours from cell seeding, TUS-007 was added to HeLa cells as follows. As a medium, a serum-free medium (37° C.) in which 1 mass % L-glutamine solution (Sigma-Aldrich) was added to D-MEM (high D-glucose, phenol red, sodium pyruvate (Wako Pure Chemical Industries, Ltd.)) was used. It is noted that the L-glutamine solution was added immediately before use. A DMSO solution containing TUS-007 was mixed with the medium so that the concentration of DMSO was 1 vol %, and added to each well at 500 μL/well, and cultured under conditions of 37° C. and 5 vol % CO2. As a control, DMSO was used.
# The medium was removed 48 hours after addition of TUS-007, and then PBS was added to wash the cells. […]
# After electrophoresis, proteins were transferred to a PVDF membrane (Immobion™-P, Millipore) under conditions of 100 V and 2 hours using a tank-type blotting device and a transfer buffer (25 mM Tris-HCl, 195 mM glycine, 0.01% SDS, 15% methanol). […] Subsequently, the membrane was treated with a chemiluminescence reagent Immobilon™ Western (Millipore), and then chemiluminescence was detected using a lumino image analyzer LAS-3000 (FUJIFILM Corporation). […]
# T1 sequence (P01112 whole entry): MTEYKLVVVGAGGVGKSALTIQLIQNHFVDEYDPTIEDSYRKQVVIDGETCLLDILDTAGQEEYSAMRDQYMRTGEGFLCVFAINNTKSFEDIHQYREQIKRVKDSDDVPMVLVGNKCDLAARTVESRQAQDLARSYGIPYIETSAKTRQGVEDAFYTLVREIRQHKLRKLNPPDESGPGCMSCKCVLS
smiles,measurement,value
CC[C@@H](C)[C@H](NC(=O)CCCCCCNC(=O)[C@H](CC(C)C)NC(=O)CNC(=O)c1cc(Cl)ccc1Cl)C(=O)Nc1ccc2[nH]c(Cc3c[nH]c4ccccc34)nc2c1 [TUS-007],amount of endogenous wild-type H-Ras protein,reduced

# Source: patent publication US20190369111A1, “MOLECULAR KINETICS EVALUATION METHOD AND SCREENING METHOD” (Tokyo University of Science Foundation, priority 2016, published 2019)
